Experiments:
[1] = tested on: sAPP-α; test: sAPP-α secretion in an Alzheimer's disease cell line; type: cell-based, human; settings: 100 nM pretreatment, bryostatin 0.1 nM
Procedure: Protocol: An Alzheimer's disease cell line was incubated with bryostatin (0.1 nM), Benzolactam (0.1 nM or 1.0 μM), DMSO, pre-treated with staurosporin (100 nM) plus bryostatin (0.1 nM) for three hours. […] The graph units are relative to the vehicle, DMSO, alone (1).

[2] = tested on: TA 100 cells & TA 1535 cells / TA 98 cells; test: AMES testing, overall result (mutagenic potential); type: cell-based
Description: (§1) The AMES test is a rapid screening of the mutagenic potential of chemical compounds. […] Between 50% and 70% of all known carcinogens test positive in the AMES test.

[3] = tested on: ECE; test: ECE activity in SH-SY5Y cells (fluorometric); type: cell-based; settings: 1 μM, compared to ethanol alone
Procedure: (§2) Aβ can be degraded in vivo by a number of enzymes, including insulin degrading enzyme (insulysin), neprilysin, and ECE (FIG. 12). Because PKC-ε overexpression has been reported to activate ECE (Choi et al., Proc. Natl. Acad. Sci. USA. 2006; 103: 8215-20), the effect of PKC activators on ECE was analyzed. Candidate PKC activators were added to either SH-SY5Y cells (Bryo—0.27 nM, DCP-LA—1 μM, and DHA-CP6 1 μM) or cultured neurons (DHA-CP6—1 μM, EPA-CP5— 1 μM, and AA-CP4— 1 μM), and grown on either 12- or 24-well plates. After various time periods, the cells were collected and ECE activity was measured fluorometrically. Results are shown below in FIG. 13. *, p<0.05; **, p<0.001.
PKCε overexpression has been reported to activate endothelin converting enzyme (ECE). The effect of PKC activators on ECE was measured here with Bryostatin, DCP-LA, and DHA-CP6. […] Protocol: Bryostatin (0.27 nM), DCP-LA (1 μM), DHACP6 (1 μM), EPA-CP5 (1 μM), AA-CP4 (1 μM), or ethanol alone were added to SH-SYSY cells growing on 12- or 24-well plates. After various periods of time, the cells were collected and ECE activity was measured fluorometrically as showing in FIG. 34 below (* p<0.05, ** p<0.001).

[4] = tested on: ECE; test: ECE activity in cultured neurons (fluorometric); type: cell-based; settings: 1 μM, compared to ethanol alone
Procedure: as §2

[5] = target: T1, PKC-ε (Homo sapiens, UniProt Q02156); test: Activation of purified PKC isozymes; type: biochemical; settings: purified PKC isozymes (9 ng), preincubated 5 minutes at room temperature
T1 sequence (Q02156 1-737): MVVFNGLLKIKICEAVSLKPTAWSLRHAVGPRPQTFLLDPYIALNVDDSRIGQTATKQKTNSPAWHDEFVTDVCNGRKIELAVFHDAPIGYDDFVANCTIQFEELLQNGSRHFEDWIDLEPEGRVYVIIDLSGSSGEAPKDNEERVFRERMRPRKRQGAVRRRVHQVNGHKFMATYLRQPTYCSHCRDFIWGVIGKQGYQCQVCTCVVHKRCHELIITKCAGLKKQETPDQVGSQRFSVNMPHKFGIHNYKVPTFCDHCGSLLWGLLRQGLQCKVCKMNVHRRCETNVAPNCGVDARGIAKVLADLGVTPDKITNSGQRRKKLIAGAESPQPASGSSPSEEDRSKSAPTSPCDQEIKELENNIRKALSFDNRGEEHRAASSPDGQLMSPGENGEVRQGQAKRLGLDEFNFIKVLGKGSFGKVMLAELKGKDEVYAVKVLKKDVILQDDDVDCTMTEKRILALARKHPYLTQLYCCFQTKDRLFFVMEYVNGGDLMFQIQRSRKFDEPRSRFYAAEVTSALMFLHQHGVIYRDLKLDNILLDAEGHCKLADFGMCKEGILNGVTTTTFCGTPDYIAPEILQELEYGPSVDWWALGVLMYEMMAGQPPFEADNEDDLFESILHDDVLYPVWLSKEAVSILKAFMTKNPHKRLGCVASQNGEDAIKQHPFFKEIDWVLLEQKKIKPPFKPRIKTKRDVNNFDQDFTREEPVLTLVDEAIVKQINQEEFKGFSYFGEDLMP
Procedure: Protocol: Purified PKC-α, βII, γ, δ, or ε (9 ng) was preincubated for 5 minutes at room temperature with the following PKC activators: (A) DHA-CP6, (B) EPA-CP5, (C) AA-CP4, (D) DCP-LA, (E) “other cyclopropaneated and epoxidized fatty acids, alcohols, and methyl esters.” followed by measurement of PKC activity as described under Experimental Procedures. Results are shown below in FIG. 6.

[6] = tested on: healthy brown Norway rats; test: Learning, memory and mushroom spine synapses in healthy rats, water maze training; type: in vivo; settings: PKCα inhibitor given with bryostatin and water maze training
Description: Protocol: Non-disease, healthy brown Norway rats (at 4-5 months old) were used in this study. […] (Nv=naîve controls; Sw=swim controls; Mz=water maze treatment; and Mz/Br=water maze treatment plus bryostatin treatment).

[7] = tested on: TA 1535 Cells; test: AMES test, TA1535 cells; type: cell-based; settings: plate count
Description: as §1

[8] = Internal toxicity study: Clinical Chemistry Panel & Hematology Panel; type: in vivo; settings: in vivo
Procedure: Internal tests measuring various biological markers were performed 24 hours after administering a PKC activator (bryostatin, cyclopropanated arachidonic acid, DCPLA, and DHACP6) at 10× the therapeutic dose. The results are shown below in Tables 5-7.

[9] = tested on: Primary human neurons; test: Synaptogenicity in primary human neurons; type: cell-based; settings: 100 nM
Procedure: Protocol: Primary human neurons were treated with either DCPLA-methyl ester (100 nM) or bryostatin-1 (0.27 nM).

[10] = tested on: HCN-2 cells; test: Synaptogenesis in HCN-2 cells; type: cell-based, human; settings: 10 days
Procedure: FIG. 9 illustrates that activation of PKC-ε induces synaptogenesis in HCN-2 cells. The HCN-2 cell line was derived from cortical tissue removed from a patient undergoing hemispherectomy for intractable seizures associated with Rasmussen's encephalitis. The cells were treated with either DCPLA-methyl ester or bryostatin-1 for 10 days. […] Thus, PKC-ε activation can induce synaptogenesis in both embryonic and adult neuronal cells.

[11] = tested on: Human primary neurons; test: ASPD-induced apoptosis in human primary neurons (Annexin-V Fluorescein); type: cell-based; settings: 100 nM with 100 nM ASPD, 24 hours
Procedure: Protocol: Human primary neurons were grown on chambered slides and treated with vehicle (Control), 100 nM ASPD, ASPD+DCPLA-ME (100 nM), ASPD+bryostatin 1 (0.27 nM) and ASPD+DCPLA-ME (100 nM) or ASPD+bryostatin 1 (0.27 nM) in presence of PKC-ε inhibitor. Following 24 hours of incubation, cells were stained using Annexin-V Fluorescein to detect apoptotic cells and results are shown in FIG. 10 below. […] Data are mean±SEM of three independent experiments. (*p<0.05;** p<0.005 and *** p<0.0005).

[12] = tested on: neurons in the CA1 hippocampal area; test: Apoptotic cell death (TUNEL) in hippocampal CA1 area after ischemic (2-VO)/hypoxic event; type: in vivo; settings: FIG. 11 legend; dose not given
Procedure: Protocol: Bryostatin-1 (15 μg/m^2) was administered through a tail vein (2 doses/week, for 10 doses), starting 24 hours after the end of the ischemic (2-VO)/hypoxic event. Staining for apoptotic cell death in the hippocampal CA1 area was performed 9 day after the last bryostatin-1 dose. […] (C) Quantification of TUNEL staining in stratum radiatum (n=3 animals; n=30 confocal images). Con=control; Bry=bryostatin-1; Isch=cerebral ischemia; ***, P<0.001.

[13] = tested on: BDNF, NGF, NT-3, and GAP-43 mRNA; test: NTF mRNA expression in primary hippocampal neurons treated with Aβ (real time PCR); type: cell-based, rat; settings: 100 nM; 1 μM Aβ; co-treated 24 hours or treated 12 hours after Aβ
Procedure: Protocol: Primary hippocampal neurons were treated with control buffer (Untreated), Aβ (1 μM, oligomeric form), or 0.5 nM bryostatin for 24 hours. Some cells were co-treated with Aβ plus 0.5 nM bryostatin (Bryo+Aβ) for 24 hours, or pre-treated with Aβ for 12 hours, washed out, and then treated with bryostatin for additional 12 hours (Aβ+Bryo). Cells were then lysed and total RNA was isolated. Relative expression change of BDNF, NGF, NT-3, and GAP-43 mRNA was quantitatively measured from real time PCR using specific primers against rat BDNF, NGF, NT-3, and GAP-43 mRNA (FIG. 14). A representative gel image is also shown below in FIG. 14 (Mean+SEM, *P<0.05, Aβ compared with untreated; #P<0.05, Bryo+Aβ or Aβ+Bryo compared with Aβ only).
Test A—DCPLA (500 nM): Primary hippocampal neurons were treated with control buffer (Untreated), Aβ (1 μM, oligomer), or 500 nM DCPLA for 24 hours. Some cells were pre-treated with Aβ for 12 hr and then treated with 500 nM DCPLA for 12 hours (Aβ+DCP-LA), or co-treated with Aβ plus 500 nM DCP-LA (DCP-LA+Aβ) for 24 hours. Total RNA was isolated and relative expression change of BDNF, NGF, NT-3, and GAP-43 mRNA was quantitatively measured from real time RT-PCR using specific primers against rat BDNF, NGF, NT-3, and GAP-43 mRNA (FIG. 15). A representative gel image is also shown below in FIG. 15 (Mean+SEM of three independent experiments, *P<0.05, Aβ compared with untreated; #P<0.05, Aβ+Bryo or Bryo+Aβ compared with Aβ only).
Test B—DCPLA-methyl ester (100 nM): Primary hippocampal neurons were treated with control buffer (Untreated), 1 μM Aβ, or 100 nM DCP-LA ME (the methyl ester form of DCP-LA) for 24 hours. Some cells were pre-treated with Aβ for 12 hr and then treated with 100 nM DCP-LA ME for 12 hours (Aβ+DCP-LA ME), or co-treated with Aβ plus […] (DCP-LA ME+Aβ) for 24 hours. Total RNA was isolated and relative expression change of BDNF, NGF, NT-3, and GAP-43 mRNA was quantitatively measured from real time RT-PCR using specific primers against rat BDNF, NGF, NT-3, and GAP-43 mRNA (FIG. 16). […]

CN[C@@H]1C[C@H]2O[C@@](C)([C@@H]1OC)n1c3ccccc3c3c4c(c5c6ccccc6n2c5c31)C(=O)NC4 [staurosporin]
effect of pretreatment on bryostatin-enhanced sAPP-α secretion [1]: completely abolished the effect of bryostatin

CCC1CC1CC1CC1CC1CC1CC1CC1CC1CC1CC1CC1CCC(=O)O (stereo not drawn) [DHA-CP6]
AMES testing result [2]: not mutagenic | Result (Mutagenic Potential) [2]: Result: Not mutagenic, p > 0.05 | ECE activity [3]: sustained increase in ECE activity | ECE activity [4]: increase in ECE activity

CCC1CC1CC1CC1CC1CC1CC1CC1CC1CC1CC1CC1CCC(=O)OC (stereo not drawn) [DHA-CP6-methyl ester]
PKC-ε specificity versus PKC-α and PKC-δ [5]: PKC-ε specificity ±15% PKC-α and PKC-δ

Cn1cc(C2=C(c3cn(CCCSC(=N)N)c4ccccc34)C(=O)NC2=O)c2ccccc21 [Ro 31-8220]
effect on bryostatin-promoted induction of mushroom spine synapses [6]: inhibited

CCC1CC1CC1CC1CC1CC1CC1CC1CC1CC1CCCC(=O)O (stereo not drawn) [EPA-CP5]
ECE activity [4]: increase in ECE activity

cyclopropanated arachidonic acid
Negative ([7]; 0.05 mM, TA 1535 Cells): 93 | Positive ([7]; 0.05 mM, TA 1535 Cells): 3 | Negative ([7]; 0.125 mM, TA1535 Cells): 95 | Positive ([7]; 0.125 mM, TA1535 Cells): 1 | Negative ([7]; 0.5 mM, TA1535 Cells): 94 | Positive ([7]; 0.5 mM, TA1535 Cells): 2 | Negative ([7]; 1 mM, TA1535 Cells): 93 | Positive ([7]; 1 mM, TA1535 Cells): 3 | AMES testing result [2]: not mutagenic | Result (Mutagenic Potential) [2]: Result: Not mutagenic, p > 0.05 | ALB (Albumin) [8]: 97.0 ± 2.6 | ALP (Alkaline phosphatase) [8]: 93.8 ± 6.6 | ALT (Alanine aminotransferase) [8]: 92.7 ± 5.4 | AST (Aspartate aminotransferase) [8]: 107.0 ± 10.3 | BA (Basophils) [8]: 400.0 ± 200.0 | BUN (Blood urea nitrogen) [8]: 92.0 ± 6.7 | CA (Calcium) [8]: 101.0 ± 3.0 | CO2-LC (Bicarbonate) [8]: 100.0 ± 5.4 | CREAT (Creatinine) [8]: 92.9 ± 5.2 | EO (Eosinophils) [8]: 500.0 ± 250.0 | GLU (Glucose) [8]: 84.8 ± 2.4 | HCT (Hematocrit) [8]: 93.3 ± 2.3 | Hb (Hemoglobin) [8]: 91.7 ± 6.0 | K (Potassium) [8]: 82.9 ± 3.6 | LY (Lymphocytes) [8]: 124.1 ± 34.4 | MCH (Mean corpuscular hemoglobin) [8]: 103.0 ± 10.7 | MCV (Mean corpuscular volume) [8]: 105.0 ± 2.0 | MO (Monocytes) [8]: 66.6 ± 33.3 | MPV (Mean platelet volume) [8]: 82.7 ± 3.7 | NA (Sodium) [8]: 99.3 ± 0.6 | NE (Neutrophils) [8]: 148.3 ± 51.7 | PLT (Platelet count) [8]: 164.5 ± 3.7 | RBC (Red Blood Cells) [8]: 89.2 ± 3.0 | TBILI (Total bilirubin) [8]: 78.2 ± 6.5 | TPROT (Total protein) [8]: 91.3 ± 1.4 | WBC (White blood count) [8]: 136.0 ± 42.6

CCCCCC1CC1CC1CC1CCCCCCCC(=O)OC (stereo not drawn) [DCPLA-methyl ester]
PKC-ε specificity versus PKC-α and PKC-δ [5]: PKC-ε specificity ±15% PKC-α and PKC-δ | co-localized staining of PSD-95 and synaptophysin in puncta (number of synapses) ([9]; 30 days): an increase in co-localized staining of PSD-95 and synaptophysin in puncta | survival, neuritic branching and connections ([9]; 40 days): improved survival with increased neuritic branching and connections | differentiation, neuronal branching and punctate colocalization of PSD-95 and synaptophysin [10]: significant differentiation with neuronal branching and increased punctate colocalization of PSD-95 and synaptophysin | protection against ASPD-induced apoptosis [11]: protected against ASPD-induced apoptosis | apoptotic cell death in neurons in the CA1 hippocampal area [12]: prevents apoptotic cell death | NTF mRNA expression decreased by Aβ [13]: recovers NTF mRNA expression decreased by Aβ

From patent US20160025704A1, “METHODS FOR IDENTIFYING NEUROPROTECTIVE PKC ACTIVATORS” (priority 2013, published 2016)
